Tested on: adult patients diagnosed with MDD
Assay: Eight-week randomized, double-blind, placebo-controlled study: association of sequenced gene markers (Tables 1-17) with vilazodone response as change of MADRS
Format: in vivo, human
Conditions: mean MADRS decrease
Excerpt: There was a wide range of inter-individual variability in response to vilazodone as well as to placebo and the active comparators. This variability may be partially due to genetic differences among the individuals treated. This example illustrates a randomized, double-blind, placebo-controlled, multicenter, eight-week study designed to discover genetic markers of response to vilazodone in adult patients diagnosed with MDD by the DSM-IV-TR criteria. Patients must have met all of the following inclusion criteria to be considered for enrollment in the study: (1) 18-65 years of age; (2) diagnosis of MDD, single episode or recurrent, according to DSM-IV-TR (296.2/296.3) with a current Major Depressive Episode of less than one year's duration with a minimum duration of at least 4 weeks; (3) HAM-D score≧22 on the first 17 items of the 21-item HAM-D at screening and baseline visits; (4) HAM-D item 1 (depressed mood) score≧2 at the screening visit and the baseline visit; (5) provision of written informed consent to participate; and (6) ability to speak, read and understand English and to respond to questions and follow simple instructions.
Following randomization into vilazodone and placebo groups, patients began the forced titration schedule. Patients received 10 mg qd until Visit 3 (approximately Day 7). At Visit 3 patients received 20 mg qd until Visit 4 (approximately Day 14). At Visit 4 patients received the target dose of 40 mg qd (approximately Day 15). A total of 152 patients completed the vilazodone arm, while 154 patients completed the placebo arm.
This example illustrates genotyping of the study group for the ACE, ATP5C3, BCL2L1, CYP2C9, DRD3, FOS, DTNBP1, GABRG3, GRIA4, LAMA4, MAPK1, NPY1R, OPRD1, OPRM1, PER3, PLCB1, and PSMD1 polymorphic sites selected by the inventors herein for analysis. Genomic DNA was isolated from blood obtained from each individual and amplified target regions containing the polymorphic sites in Tables A-21 to A-37 (Appendix A) were sequenced to determine the genotypes at these polymorphic sites. Tailed (Universal M13 Forward and Reverse) PCR primers were designed using the sequence of SEQ ID NO:1 for ACE, SEQ ID NO:2 for ATP5C3, SEQ ID NO:3 for BCL2L1, SEQ ID NO:4 for CYP2C9, SEQ ID NO:5 for DRD3, SEQ ID NO:6 for FOS, SEQ ID NO:7 for DTNBP1, SEQ ID NO:8 for GABRG3, SEQ ID NO:9 for GRIA4, SEQ ID NO:10 for LAMA4, SEQ ID NO:11 for MAPK1, SEQ ID NO:12 for NPY1R, SEQ ID NO:13 for OPRD1, SEQ ID NO:14 for OPRM1, SEQ ID NO:15 for PER3, SEQ ID NO:16 for PLCB1, and SEQ ID NO:17 for PSMD1. Amplified PCR products were sequenced using Applied Biosystems' Big Dye® Terminator v 3.1 cycle sequencing kit according to manufacturer's instructions. The reaction products were then electrophoresed using an Applied Biosystems 3700 or 3730xl DNA analyzer. Polymorphisms were identified using the Polyphred program, and confirmed by visual inspection.
Haplotypes were estimated from the unphased genotypes using a computer-implemented algorithm for assigning haplotypes to unrelated individuals in a population sample, essentially as described in WO 01/80156. In this method, haplotypes are assigned directly from individuals who are homozygous at all sites or heterozygous at no more than one of the variable sites. This list of haplotypes is then used to deconvolute the unphased genotypes in the remaining (multiply heterozygous) individuals.
This example illustrates analysis of the markers in Tables A-1 to A-17 (Appendix A) for association with vilazodone response. A proprietary algorithm was used as a tool for finding associations between markers and outcomes. The clinical outcomes were improvement in disease over eight weeks of treatment with vilazodone as measured by the MADRS scale. A linear model was first fitted on the covariates, which were treatment center, race, ethnicity, and baseline values. […]

[1] = PLCB1 marker 54, carriers vs non-carriers
[2] = PLCB1 marker 55, carriers vs non-carriers
[3] = PLCB1 marker 56, carriers vs non-carriers
[4] = PLCB1 marker 57, carriers vs non-carriers
[5] = PLCB1 marker 58, carriers vs non-carriers
[6] = PLCB1 marker 59, carriers vs non-carriers
[7] = PLCB1 marker 60, carriers vs non-carriers
[8] = PLCB1 marker 61, carriers vs non-carriers
[9] = PLCB1 marker 62, carriers vs non-carriers
[10] = PLCB1 marker 63, carriers vs non-carriers
[11] = PLCB1 marker 64, carriers vs non-carriers
[12] = PLCB1 marker 65, carriers vs non-carriers
[13] = PLCB1 marker 66, carriers vs non-carriers
[14] = PLCB1 marker 67, carriers vs non-carriers
[15] = PLCB1 marker 68, carriers vs non-carriers
[16] = PLCB1 marker 96, carriers vs non-carriers
[17] = PLCB1 marker 97, carriers vs non-carriers
[18] = PLCB1 marker 98, carriers vs non-carriers
[19] = PLCB1 marker 99, carriers vs non-carriers
[20] = PLCB1 marker 100, carriers vs non-carriers
[21] = PLCB1 marker 101, carriers vs non-carriers
[22] = PLCB1 marker 102, carriers vs non-carriers
[23] = PLCB1 marker 103, carriers vs non-carriers
[24] = PLCB1 marker 104, carriers vs non-carriers
[25] = PLCB1 marker 105, carriers vs non-carriers
[26] = PLCB1 marker 106, carriers vs non-carriers
[27] = PLCB1 marker 107, carriers vs non-carriers
[28] = PLCB1 marker 108, carriers vs non-carriers
[29] = PLCB1 marker 109, carriers vs non-carriers
[30] = PLCB1 marker 110, carriers vs non-carriers
[31] = PLCB1 marker 111, carriers vs non-carriers
[32] = PLCB1 marker 112, carriers vs non-carriers
[33] = PLCB1 marker 113, carriers vs non-carriers
[34] = PLCB1 marker 114, carriers vs non-carriers
[35] = PLCB1 marker 115, carriers vs non-carriers
[36] = PLCB1 marker 116, carriers vs non-carriers
[37] = PLCB1 marker 117, carriers vs non-carriers
[38] = PLCB1 marker 118, carriers vs non-carriers
[39] = PLCB1 marker 119, carriers vs non-carriers
[40] = PLCB1 marker 120, carriers vs non-carriers
[41] = PLCB1 marker 121, carriers vs non-carriers
[42] = PLCB1 marker 122, carriers vs non-carriers
[43] = PLCB1 marker 123, carriers vs non-carriers
[44] = PLCB1 marker 124, carriers vs non-carriers
[45] = PLCB1 marker 125, carriers vs non-carriers
[46] = PLCB1 marker 126, carriers vs non-carriers
[47] = PLCB1 marker 127, carriers vs non-carriers
[48] = PLCB1 marker 128, carriers vs non-carriers
[49] = PLCB1 marker 129, carriers vs non-carriers
[50] = PLCB1 marker 130, carriers vs non-carriers

Cl.N#Cc1ccc2[nH]cc(CCCCN3CCN(c4ccc5oc(C(N)=O)cc5c4)CC3)c2c1 [Vilazodone, 5-{4-[4-(5-Cyano-3-indolyl)-butyl]-1-piperazinyl}-benzofuran-2-carboxamide hydrochloride]
Response difference (Cauc. only) [1]: −6.6 | Response difference (all ethnic.) [1]: −5.1 | Response difference (Cauc. only) [2]: −5.9 | Response difference (all ethnic.) [2]: −4.3 | Response difference (Cauc. only) [3]: −6 | Response difference (all ethnic.) [3]: −4.3 | Response difference (Cauc. only) [4]: −6 | Response difference (all ethnic.) [4]: −4.3 | Response difference (Cauc. only) [5]: −5.4 | Response difference (all ethnic.) [5]: −3.9 | Response difference (Cauc. only) [6]: −6.4 | Response difference (all ethnic.) [6]: −5.1 | Response difference (Cauc. only) [7]: −5.8 | Response difference (all ethnic.) [7]: −4.6 | Response difference (Cauc. only) [8]: −6.4 | Response difference (all ethnic.) [8]: −5.2 | Response difference (Cauc. only) [9]: −7 | Response difference (all ethnic.) [9]: −5.6 | Response difference (Cauc. only) [10]: −7 | Response difference (all ethnic.) [10]: −5.6 | Response difference (Cauc. only) [11]: −7 | Response difference (all ethnic.) [11]: −5.6 | Response difference (Cauc. only) [12]: −7 | Response difference (all ethnic.) [12]: −5.6 | Response difference (Cauc. only) [13]: −7 | Response difference (all ethnic.) [13]: −5.6 | Response difference (Cauc. only) [14]: −7 | Response difference (all ethnic.) [14]: −5.6 | Response difference (Cauc. only) [15]: −7 | Response difference (all ethnic.) [15]: −5.6 | Response difference (Cauc. only) [16]: −7.3 | Response difference (all ethnic.) [16]: −4.2 | Response difference (Cauc. only) [17]: −7.3 | Response difference (all ethnic.) [17]: −4.2 | Response difference (Cauc. only) [18]: −7.3 | Response difference (all ethnic.) [18]: −4.2 | Response difference (Cauc. only) [19]: −7.3 | Response difference (all ethnic.) [19]: −4.2 | Response difference (Cauc. only) [20]: −7.3 | Response difference (all ethnic.) [20]: −4.2 | Response difference (Cauc. only) [21]: −6 | Response difference (all ethnic.) [21]: −4.7 | Response difference (Cauc. only) [22]: −6 | Response difference (all ethnic.) [22]: −4.7 | Response difference (Cauc. only) [23]: −6.6 | Response difference (all ethnic.) [23]: −4.6 | Response difference (Cauc. only) [24]: −6.6 | Response difference (all ethnic.) [24]: −4.6 | Response difference (Cauc. only) [25]: −6.6 | Response difference (all ethnic.) [25]: −4.6 | Response difference (Cauc. only) [26]: −6.6 | Response difference (all ethnic.) [26]: −4.6 | Response difference (Cauc. only) [27]: −6.6 | Response difference (all ethnic.) [27]: −4.6 | Response difference (Cauc. only) [28]: −6.6 | Response difference (all ethnic.) [28]: −4.6 | Response difference (Cauc. only) [29]: −6.6 | Response difference (all ethnic.) [29]: −4.6 | Response difference (Cauc. only) [30]: −6.7 | Response difference (all ethnic.) [30]: −4.7 | Response difference (Cauc. only) [31]: −6.7 | Response difference (all ethnic.) [31]: −4.7 | Response difference (Cauc. only) [32]: −6.7 | Response difference (all ethnic.) [32]: −4.7 | Response difference (Cauc. only) [33]: −6.7 | Response difference (all ethnic.) [33]: −4.7 | Response difference (Cauc. only) [34]: −6.7 | Response difference (all ethnic.) [34]: −4.7 | Response difference (Cauc. only) [35]: −6.7 | Response difference (all ethnic.) [35]: −4.7 | Response difference (Cauc. only) [36]: −6.7 | Response difference (all ethnic.) [36]: −4.7 | Response difference (Cauc. only) [37]: −6.7 | Response difference (all ethnic.) [37]: −4.7 | Response difference (Cauc. only) [38]: −6.7 | Response difference (all ethnic.) [38]: −4.7 | Response difference (Cauc. only) [39]: −6.7 | Response difference (all ethnic.) [39]: −4.7 | Response difference (Cauc. only) [40]: −6.7 | Response difference (all ethnic.) [40]: −4.7 | Response difference (Cauc. only) [41]: −6.7 | Response difference (all ethnic.) [41]: −4.7 | Response difference (Cauc. only) [42]: −6.7 | Response difference (all ethnic.) [42]: −4.7 | Response difference (Cauc. only) [43]: −6.7 | Response difference (all ethnic.) [43]: −4.7 | Response difference (Cauc. only) [44]: −5.9 | Response difference (all ethnic.) [44]: −4.2 | Response difference (Cauc. only) [45]: −5.9 | Response difference (all ethnic.) [45]: −4.2 | Response difference (Cauc. only) [46]: −5.9 | Response difference (all ethnic.) [46]: −4.2 | Response difference (Cauc. only) [47]: −5.9 | Response difference (all ethnic.) [47]: −4.2 | Response difference (Cauc. only) [48]: −5.9 | Response difference (all ethnic.) [48]: −4.2 | Response difference (Cauc. only) [49]: −5.9 | Response difference (all ethnic.) [49]: −4.2 | Response difference (Cauc. only) [50]: −5.9 | Response difference (all ethnic.) [50]: −4.2
